{"source": "patent US10933141B2", "about": "“Formulations with reduced degradation of polysorbate” (Genentech, Inc., priority 2015, dated 2021)", "key": {"[1]": {"biological_target": "T1, porcine pancreatic lipase (PPL) (Sus scrofa, UniProt P00591)", "T1 construct": "purchased Sigma Aldrich Inc. (St. Louis, Mo.)", "T1 sequence (P00591 1-450)": "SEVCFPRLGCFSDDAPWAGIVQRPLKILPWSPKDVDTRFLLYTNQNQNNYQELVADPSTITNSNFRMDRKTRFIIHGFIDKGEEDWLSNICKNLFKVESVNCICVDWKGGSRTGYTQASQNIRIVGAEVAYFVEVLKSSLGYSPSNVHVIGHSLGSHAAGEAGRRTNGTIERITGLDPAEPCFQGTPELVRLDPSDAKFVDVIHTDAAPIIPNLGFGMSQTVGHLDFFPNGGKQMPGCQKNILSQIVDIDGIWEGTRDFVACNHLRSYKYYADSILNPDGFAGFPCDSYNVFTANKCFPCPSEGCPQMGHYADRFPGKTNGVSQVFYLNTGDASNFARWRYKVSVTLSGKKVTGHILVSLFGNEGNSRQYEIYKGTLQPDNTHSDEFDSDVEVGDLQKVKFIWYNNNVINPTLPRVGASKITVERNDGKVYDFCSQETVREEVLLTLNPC", "experiment": "Enzymatic degradation of PS20 by PPL, 4.5 hour digestion, PS20 by RP-ELSD", "assay_type": "biochemical", "settings": "0.02% PS20; 15 μg/mL PPL 4.5 hours; excipient 15% w/v (methionine 10 mg/mL)", "procedure": "Polysorbate concentration was determined using reverse phase ultra-performance liquid chromatography using evaporative light scattering detection (RP-ELSD). Samples were analyzed using an Agilent 1100 series high performance liquid chromatography system (HPLC) fitted with a Waters Oasis MAX cartridge column (20×2.1 mm, 30 μm particle size). The HPLC system was set up with a switching valve directing column flow-through to either waste or a Varian 380-LC evaporative light scattering detector set to 100° C. The mobile phases consisted of 2% formic acid in water (Pump A) and 2% formic acid in isopropanol (Pump B). The pump gradient was isocratic at 10% pump B during equilibration, linear to 20% pump B for 1 minute, isocratic at 20% pump B for 2.4 minutes, linear to 100% pump B for 0.1 minutes, isocratic at 100% pump B for 1.1 minutes, linear to 10% pump B for 0.1 minutes, and finally isocratic at 10% pump B for 1.9 minutes. The switching valve directed column flow-through to waste at the beginning of every injection, and then directed flow to the detector after 2.4 minutes until the end of the gradient. In order to quantitate the PS20 concentration, a standard curve was generated by injecting 20 μL of solutions containing between 0% w/v and 0.4% w/v PS20.\n(§1) Several excipients were tested for their ability to protect PS20 against enzymatic hydrolysis including HP-α-CD, HP-β-CD, HP-γ-CD, SBE-β-CD, PVP, PEG 1500, sucrose, and methionine. Solutions of each excipient in pH 5.5 buffer were prepared containing a final concentration of 0.02% PS20 after enzyme addition. The concentration of HP-α-CD, HP-β-CD, HP-γ-CD, and SBE-β-CD in the excipient solutions was 106 mM. […] The remaining excipients (PVP, PEG 1500, sucrose) were added to 15% w/v to match the % w/v of HP-β-CD. Samples were digested with 15 μg/mL PPL enzyme for 4.5 hours at room temperature, followed by 30 minutes of heat inactivation at 85° C. Each sample was analyzed for PS20 concentration using high performance liquid chromatography with an inline evaporative light scattering detector. Samples were then placed at 5° C. overnight to allow for the formation of particles and were analyzed for visible and subvisible particles as described previously.\n(§2) The effect of the HP-β-CD concentration at different PS20 concentrations on the enzymatic degradation of PS20 was assessed to identify optimal concentrations for inhibition of enzymatic PS20 degradation. To evaluate the dependence of PS20 degradation on HP-β-CD concentration, the PS20 content was determined using RP-ELSD for triplicate samples containing different HP-β-CD concentrations at various PS20 concentrations. Samples containing 0.005% (FIG. 14A), 0.02% (FIG. 14B), 0.1% (FIG. 14C), and 0.4% PS20 (FIG. 14D) were digested using 15 μg/mL of PPL enzyme for 4.5 hours at room temperature in protein-free samples containing no excipient (control), 0, 0.5, 5, and 15% (w/v) HP-β-CD. PPL was added to each of the treatment solutions at a ratio of 75 […], with an equivalent volume of buffer added to the control solutions to determine the effect of HP-β-CD to polysorbate ratio on enzymatic degradation. Digestion was stopped by heat inactivation in an 85° C. water bath for 30 minutes. Each sample was analyzed for PS20 concentration using high performance liquid chromatography with an inline evaporative light scattering detector as described above. Samples were then placed at 5° C. overnight to allow for the formation of particles and placed on ice during analysis for visible and subvisible particles as described above."}, "[2]": {"biological_target": "T1, porcine pancreatic lipase (PPL)", "experiment": "Subvisible particle formation after PPL digestion of PS20 (HIAC)", "assay_type": "physicochemical", "settings": "0.02% PS20; 15 μg/mL PPL 4.5 hours, then 5° C. overnight; excipient 15% w/v (methionine 10 mg/mL)", "procedure": "Subvisible particles were measured using a HIAC 9703 particle counter equipped with an HRDL-150 detector and a 1 mL syringe. Performance of the instrument was verified with NIST-traceable 2 μm Polystyrene bead standards at 3000 counts/mL before each measurement session. The HIAC instrument was configured to a 10 mL/min flow rate, 0.1 mL tare volume, and 0.4 mL sample volume. The samples were analyzed using 4 runs of 0.4 mL sips, with the first run of each sample was discarded to prevent measurement error due to sample carryover. Results were reported as the average values for 1.4, 2, 5, 10, 15, and 25, 50 μm analysis filter sizes.\nas §1, §2"}}, "note": "Entries after “also recorded” stand apart in the source; their conditions may differ."}
{"molecule": "CSCC[C@H](N)C(=O)O", "note": "[methionine, reference compound]", "values": [{"measurement": "inhibitory effect on enzymatic PS20 degradation (in words)", "setting": "[1]", "value": "did not have an inhibitory effect"}, {"measurement": "effect on SVP formation (in words)", "setting": "[2]", "value": "did not have an inhibitory effect"}]}
{"molecule": "sulfobutyl ether β-cyclodextrin [SBE-β-CD]", "values": [{"measurement": "inhibitory effect on enzymatic PS20 degradation (in words)", "setting": "[1]", "value": "significant inhibitory effects; also recorded: able to prevent enzymatic degradation of PS20"}, {"measurement": "effect on SVP formation (in words)", "setting": "[2]", "value": "significant inhibitory effects"}]}
